Calls of active or inactive are those of the source. No cut-off for these calls is given here.

The test system of data set [1] is H9c2. Put plainly: Cardioprotective activity against hydrogen peroxide induced cell injury in rat H9c2 cells at 40 uM pretreated for 24 hrs followed by treatment with hydrogen peroxide for 2 hrs by MTT assay. The format is functional, cell-based. The settings on record: time 26.0 hrs.
Data set [2] has as its system Rattus norvegicus. Put plainly: Cardioprotective activity in myocardial ischemia/reperfusion induced Sprague-Dawley rat injury model assessed as reduction in cardiac infarct size at 10 mg/kg, ip administered once a day for 2 weeks measured by Evans blue staining analysis (reference value: 46.8%). The format is functional, Heart. Set-up: scale not given: the % may be the effect or the level left.

The subject of data set [3] is H9c2. As to the kind of experiment: Antioxidant activity in hydrogen peroxide induced rat H9c2 cells assessed as increase in HO-1 expression pretreated with compound for 24 hrs followed by treatment with hydrogen peroxide for 2 hrs. The format is functional, cell-based. The settings on record: dose 5-20 µM, time 26.0 hrs.
Data set [4] relates to Rattus norvegicus. As to the kind of experiment: Antiinflammatory activity in myocardial ischemia/reperfusion induced ip dosed Sprague-Dawley rat injury model assessed as decrease in MDA level administered once a day for 2 weeks by Western blotting analysis. The format is functional, organism-based. The settings on record: dose 5-20 mg/kg.
Data set [5] has as its system Rattus norvegicus. As to the kind of experiment: Antiinflammatory activity in myocardial ischemia/reperfusion induced ip dosed Sprague-Dawley rat injury model assessed as increase in CAT activity administered once a day for 2 weeks by Western blotting analysis. The format is functional, organism-based. The settings on record: dose 5-20 mg/kg.
The subject of data set [6] is H9c2. As to the kind of experiment: Antiinflammatory activity in hydrogen peroxide induced rat H9c2 cells assessed as reversal of increase in IL-18 mRNA expression pretreated with compound for 24 hrs followed by treatment with hydrogen peroxide for 2 hrs. The format is functional, cell-based. The settings on record: dose 5-20 µM, time 26.0 hrs.
Data set [7] concerns Rattus norvegicus. Put plainly: Cardioprotective activity in myocardial ischemia/reperfusion induced Sprague-Dawley rat injury model assessed as reduction in heart cardiac infarct size at 20 mg/kg, ip administered once a day for 2 weeks measured by Evans blue staining analysis (reference value: 46.8%). The format is functional. On the set-up: scale not given: the % may be the effect or the level left.

Data set [8] deals with Rattus norvegicus. Put plainly: Antiinflammatory activity in myocardial ischemia/reperfusion induced ip dosed Sprague-Dawley rat injury model assessed as decrease in NLRP3 protein expression in heart administered once a day for 2 weeks by Western blotting analysis. The settings on record: dose 5-20 mg/kg. The format is functional, organism-based.
Data set [9] has as its system H9c2. Put plainly: Cardioprotective activity against hydrogen peroxide induced cell injury in rat H9c2 cells assessed as increase in cell viability at 5 uM measured after 24 hrs by MTT assay. The format is functional.
Data set [10] has as its system H9c2. As to the kind of experiment: Inhibition of autophagy in hydrogen peroxide induced rat H9c2 cells assessed as down regulation of […] mRNA level at 5 to 20 uM pretreated with compound for 24 hrs followed by treatment with hydrogen peroxide for 2 hrs. The settings on record: dose 5-20 µM, time 26.0 hrs. The format is functional, cell-based.
In data set [11] the test system is H9c2. As to the kind of experiment: Antioxidant activity in hydrogen peroxide induced rat H9c2 cells assessed as increase in Nrf2 expression pretreated with compound for 24 hrs followed by treatment with hydrogen peroxide for 2 hrs. The settings on record: dose 5-20 µM, time 26.0 hrs. The format is functional, cell-based.
Data set [12] deals with H9c2. As to the kind of experiment: Cytotoxicity against rat H9c2 cells assessed as reduction in cell viability upto 100 uM measured after 24 hrs by MTT assay relative to control. The format is toxicity, cell-based. The settings on record: h9c2, 24 h.
Data set [13] relates to Rattus norvegicus. As to the kind of experiment: Cardioprotective activity in myocardial ischemia/reperfusion induced Sprague-Dawley rat injury model assessed as decrease in ST-segment elevation at 5 to 20 mg/kg, ip administered once a day for 2 weeks measured by electrocardiogram. The format is functional, organism-based. The settings on record: dose 5-20 mg/kg.
In data set [14] the test system is H9c2. Put plainly: Antiinflammatory activity in hydrogen peroxide induced rat H9c2 cells assessed as reversal of increase in NLRP-3 mRNA expression pretreated with compound for 24 hrs followed by treatment with hydrogen peroxide for 2 hrs. The format is functional, cell-based. The settings on record: dose 5-20 µM, time 26.0 hrs.
Data set [15] deals with H9c2. As to the kind of experiment: Cardioprotective activity against hydrogen peroxide induced cell injury in rat H9c2 cells assessed as reduction in loss of cell membrane integrity by measuring LDH level at 10 uM pretreated with compound for 24 hrs followed by treatment with hydrogen peroxide for 2 hrs relative to control. The format is functional. On the set-up: scale not given: the % may be the effect or the level left.

Data set [16] has as its system Rattus norvegicus. Put plainly: Cardioprotective activity in myocardial ischemia/reperfusion induced ip dosed Sprague-Dawley rat injury model assessed as increase in heart AST level administered once a day for 2 weeks. The format is functional, organism-based. The settings on record: dose 5-20 mg/kg.
In data set [17] the test system is H9c2. Put plainly: Cardioprotective activity against hydrogen peroxide induced cell injury in rat H9c2 cells assessed as reduction in loss of cell membrane integrity by measuring LDH level at 20 uM pretreated with compound for 24 hrs followed by treatment with hydrogen peroxide for 2 hrs relative to control. The format is functional. Set-up: scale not given: the % may be the effect or the level left.

The subject of data set [18] is H9c2. As to the kind of experiment: Antioxidant activity in hydrogen peroxide induced rat H9c2 cells assessed as increase in SOD expression pretreated with compound for 24 hrs followed by treatment with hydrogen peroxide for 2 hrs. The settings on record: dose 5-20 µM, time 26.0 hrs. The format is functional, cell-based.
Data set [19] has as its system Rattus norvegicus. Put plainly: Antiinflammatory activity in myocardial ischemia/reperfusion induced ip dosed Sprague-Dawley rat injury model assessed as decrease in IL-1beta protein expression in heart administered once a day for 2 weeks by Western blotting analysis. The format is functional, organism-based. The settings on record: dose 5-20 mg/kg.
Data set [20] relates to H9c2. As to the kind of experiment: Cardioprotective activity against hydrogen peroxide induced cell injury in rat H9c2 cells assessed as reduction in loss of cell membrane integrity by measuring LDH level at 5 uM pretreated with compound for 24 hrs followed by treatment with hydrogen peroxide for 2 hrs relative to control. Set-up: scale not given: the % may be the effect or the level left. The format is functional.

Data set [21] relates to H9c2. Put plainly: Cardioprotective activity against hydrogen peroxide induced cell injury in rat H9c2 cells assessed as increase in cell viability at 5 to 20 uM measured after 24 hrs by MTT assay. The format is functional, cell-based. The settings on record: dose 5-20 µM.
Data set [22] has as its system H9c2. As to the kind of experiment: Inhibition of autophagy in hydrogen peroxide induced rat H9c2 cells assessed as down regulation of p62 mRNA level at 5 to 20 uM pretreated with compound for 24 hrs followed by treatment with hydrogen peroxide for 2 hrs. The format is functional, cell-based. The settings on record: dose 5-20 µM, time 26.0 hrs.
For data set [23], the system named is Rattus norvegicus. Put plainly: Cardioprotective activity in myocardial ischemia/reperfusion induced ip dosed Sprague-Dawley rat injury model assessed as increase in heart LDH level administered once a day for 2 weeks. The format is functional, organism-based. The settings on record: dose 5-20 mg/kg.
The subject of data set [24] is H9c2. As to the kind of experiment: Cardioprotective activity against hydrogen peroxide induced cell injury in rat H9c2 cells at 5 to 20 uM pretreated with compound for 24 hrs followed by hydrogen peroxide addition for 2 hrs by MTT assay. The format is functional, cell-based. The settings on record: dose 5-20 µM, time 26.0 hrs.
Data set [25] relates to Rattus norvegicus. As to the kind of experiment: Antioxidant activity in myocardial ischemia/reperfusion induced Sprague-Dawley rat injury model assessed as […] Nrf2 expression administered at 10 mg/kg, ip once a day for 2 weeks by Western blotting analysis. The format is functional, organism-based.
Data set [26] deals with Rattus norvegicus. As to the kind of experiment: Antiinflammatory activity in myocardial ischemia/reperfusion induced Sprague-Dawley rat injury model assessed as decrease in IL-1beta protein expression in heart at 10 mg/kg, ip administered once a day for 2 weeks by Western blotting analysis. The format is functional, organism-based.
The subject of data set [27] is H9c2. Put plainly: Antiinflammatory activity in hydrogen peroxide induced rat H9c2 cells assessed as reversal of increase in IL-1beta mRNA expression pretreated with compound for 24 hrs followed by treatment with hydrogen peroxide for 2 hrs. The settings on record: dose 5-20 µM, time 26.0 hrs. The format is functional, cell-based.
The test system of data set [28] is H9c2. As to the kind of experiment: Cardioprotective activity against hydrogen peroxide induced cell injury in rat H9c2 cells assessed as reversal of abnormal cell morphology pretreated with compound for 24 hrs followed by treatment with hydrogen peroxide for 2 hrs. The format is functional, cell-based. The settings on record: dose 5-20 µM, time 26.0 hrs.

Turning to `COCCc1ccc(OCC(O)CNC(C)C)cc1` (stereo not drawn), the result in the data set with H9c2 [1] was Active.
For `CN1C(=O)C(=Cc2ccc(O)c(O)c2)C(=O)N(C)C1=O`, the Activity is 32.3% with Rattus norvegicus [2]; “Dose-Dependent Effect” in the data set with H9c2 [3]; “Dose-Dependent Effect” in the data set with H9c2 [6]; 22.3% in the data set on Rattus norvegicus [7]; 77.5% in the data set on H9c2 [9]; “Dose-Dependent Effect” in the data set on H9c2 [11]. In addition, the Activity entry in the data set on H9c2 [12] was “Non-Toxic”; in the data set on H9c2 [14] it was “Dose-Dependent Effect”; with H9c2 [15], 35.6%; in the data set on Rattus norvegicus [16] it was “Dose-Dependent Effect”; with H9c2 [17], 60.7%; with H9c2 [18], “Dose-Dependent Effect”. The Activity is 15.3% with H9c2 [20], “Dose-Dependent Effect” in the data set on Rattus norvegicus [23], “Dose-Dependent Effect” with H9c2 [27] and “Dose-Dependent Effect” in the data set with H9c2 [28]. Also, the outcome in the data set on Rattus norvegicus [4], with Rattus norvegicus [5], in the data set with Rattus norvegicus [8], with Rattus norvegicus [13], in the data set with Rattus norvegicus [19] and in the data set with H9c2 [21] was Active. The result in the data set on H9c2 [24] and in the data set on Rattus norvegicus [26] was Active. The inhibition entry in the data set on H9c2 [10] and with H9c2 [22] was “Active” in each case. Further, the outcome in the data set with Rattus norvegicus [25] was inactive.
Consider `Cc1ccc(O)c(C=C2C(=O)N(C)C(=O)N(C)C2=O)c1`, for which the outcome in the data set with H9c2 [24] was Active.
Regarding `CN1C(=O)C(=Cc2ccccc2O)C(=O)N(C)C1=O`, the Activity in the data set with H9c2 [9] was 40.3%. Besides, the result with H9c2 [21] was Active.
`O=c1cc(-c2ccc(O)c(O)c2)oc2cc(O)cc(O)c12`: the outcome in the data set on H9c2 [1] was Active.
Take `CN1C(=O)C(=Cc2cccc(O)c2O)C(=O)N(C)C1=O`: the outcome in the data set with H9c2 [24] was Active.
